Source: ChEMBL document CHEMBL2380196, “New anticancer active and selective phenylene-bisbenzothiazoles: synthesis, antiproliferative evaluation and DNA binding” (Eur J Med Chem, 2013)
Calls of active or inactive are those of the source. No cut-off for these calls is given here.

What was measured:
[1] = molecular target: T1, DNA topoisomerase 1 (Homo sapiens) (UniProt P11387); experiment: Inhibition of human topoisomerase 1-mediated supercoiled pUC19 DNA relaxation assessed as formation of open circle form after 45 mins using ethidium bromide staining by agarose gel electrophoresis
T1 sequence (whole entry): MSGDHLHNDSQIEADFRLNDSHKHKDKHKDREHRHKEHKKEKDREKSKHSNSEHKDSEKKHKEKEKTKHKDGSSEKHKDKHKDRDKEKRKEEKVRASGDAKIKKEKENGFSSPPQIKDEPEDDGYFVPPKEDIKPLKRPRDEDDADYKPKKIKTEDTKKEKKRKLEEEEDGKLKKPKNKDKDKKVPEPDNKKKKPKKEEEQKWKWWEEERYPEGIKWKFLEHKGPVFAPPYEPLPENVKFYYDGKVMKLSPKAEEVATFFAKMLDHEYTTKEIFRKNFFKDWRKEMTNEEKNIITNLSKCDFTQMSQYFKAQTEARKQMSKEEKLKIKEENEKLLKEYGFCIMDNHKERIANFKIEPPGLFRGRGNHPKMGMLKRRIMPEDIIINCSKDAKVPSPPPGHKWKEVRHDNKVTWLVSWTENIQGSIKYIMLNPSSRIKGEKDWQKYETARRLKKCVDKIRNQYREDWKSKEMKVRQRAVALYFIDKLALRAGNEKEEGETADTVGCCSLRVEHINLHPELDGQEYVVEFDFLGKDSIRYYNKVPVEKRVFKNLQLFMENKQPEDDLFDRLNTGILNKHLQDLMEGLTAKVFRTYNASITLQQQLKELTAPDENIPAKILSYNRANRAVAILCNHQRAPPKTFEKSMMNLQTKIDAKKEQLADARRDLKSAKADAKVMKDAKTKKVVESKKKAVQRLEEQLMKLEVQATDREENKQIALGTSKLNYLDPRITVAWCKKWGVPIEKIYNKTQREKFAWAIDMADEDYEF

[2] = system: SW-620; experiment: Cell cycle arrest in human SW620 cells assessed as accumulation in G2/M phase at 5 uM after 48 hrs using propidium iodide staining by flow cytometry relative to control; assay type: functional
[3] = system: SW-620; experiment: Cell cycle arrest in human SW620 cells assessed as accumulation in sub-G1 phase at 5 uM after 48 hrs using propidium iodide staining by flow cytometry relative to control; assay type: functional
[4] = molecular target: T1, DNA topoisomerase 1 (Homo sapiens); experiment: Inhibition of human topoisomerase 1-mediated supercoiled pUC19 DNA relaxation at 1 to 50 uM after 45 mins by agarose gel electrophoresis

Row | SMILES | inhibition [1] | Activity [2] [%] | Activity [3] [%] | inhibition [4]
1 | Cl.Cl.c1cc(-c2nc3ccc(C4=NCCN4)cc3s2)cc(-c2nc3ccc(C4=NCCN4)cc3s2)c1 | Active | 14.7 | 24.8 | –
2 | Cl.Cl.c1cc2nc(-c3ccc(-c4nc5ccc(C6=NCCN6)cc5s4)cc3)sc2cc1C1=NCCN1 | – | – | – | Active
